Assays:
HL-60 = HL-60 differentiation potency; format: cell-based; conditions: Homo sapiens
in vitro = conditions: human

| EC50 (HL-60) [nM] | IC50 (in vitro) [nM] | SMILES |
| --- | --- | --- |
| 1340 | > 20000 | C[C@H]1[C@@H](Oc2ccc(Cn3cc(C(=O)O)nn3)cc2)O[C@@H]2O[C@@]3(C)CC[C@H]4[C@H](C)CC[C@@H]1[C@@]24OO3 [Compound 245, 1-(4-(((3R,5aS,6R,8aS, 9R,10S,12R, 12aR)-3,6,9-trimethyldeca-hydro-12H-3,12-epoxy[1,2]dioxepino[4,3-i]isochromen-10-yl)oxy)benzyl)-1H-1,2,3-triazole-4-carboxylic acid] |
| 43.2 | > 20000 | C[C@H]1[C@@H](OCc2ccc(C(=O)NC34CCC(C(=O)O)(C3)C4)cc2)O[C@@H]2O[C@@]3(C)CC[C@H]4[C@H](C)CC[C@@H]1[C@@]24OO3 [Compound 293, 4-(4-((((3R,5aS,6R,8aS, 9R,10S,12R, 12aR)-3,6,9-trimethyldeca-hydro-12H-3,12-epoxy[1,2]dioxepino[4,3-i]isochromen-10-yl)oxy)methyl)benzamido) bicyclo[2.1.1] hexane-1-carboxylic acid] |
| > 20000 | > 20000 | C[C@H]1[C@@H](Oc2ccc(C(=O)N3[C@H](C(=O)O)C[C@@H]4C[C@@H]43)cc2)O[C@@H]2O[C@@]3(C)CC[C@H]4[C@H](C)CC[C@@H]1[C@@]24OO3 [Compound 258, (1S,3S,5S)-2-(4-(((3R,5aS,6R,8aS, 9R,10S,12R, 12aR)-3,6,9-trimethyldeca-hydro-12H-3,12-epoxy[1,2]dioxepino[4,3-i]isochromen-10-yl)oxy)benzoyl)-2-azabicyclo [3.1.0]hexane-3-carboxylic acid] |
| 51.2 | 12000 | C[C@H]1[C@@H](OC2CCc3cc(C(=O)O)ccc32)O[C@@H]2O[C@@]3(C)CC[C@H]4[C@H](C)CC[C@@H]1[C@@]24OO3 (stereo partly drawn) [Compound 226, 1-(((3R,5aS,6R,8aS, 9R,10S,12R, 12aR)-3,6,9-trimethyldeca-hydro-12H-3,12-epoxy[1,2]dioxepino[4,3-i]isochromen-10-yl)oxy)-2,3-dihydro-1H-indene-5-carboxylic acid] |
| 25.9 | 11700 | C[C@H]1[C@@H](Oc2ccc(CC(=O)N[C@H]3CC[C@H](C(=O)O)C3)cc2)O[C@@H]2O[C@@]3(C)CC[C@H]4[C@H](C)CC[C@@H]1[C@@]24OO3 [Compound 307, (1S,3S)-3-(2-(4-(((3R,5aS,6R,8aS, 9R,10S,12R, 12aR)-3,6,9-trimethyldeca-hydro-12H-3,12-epoxy[1,2]dioxepino[4,3-i]isochromen-10-yl)oxy)phenyl)acetamido) cyclopentane-1-carboxylic acid] |
| 17 | 80 | C[C@H]1[C@@H](Oc2ccc(C(=O)N[C@H](C(=O)O)C3CCCCC3)cc2)O[C@@H]2O[C@@]3(C)CC[C@H]4[C@H](C)CC[C@@H]1[C@@]24OO3 [Compound 231, (S)-2-cyclohexyl-2-(4-(((3R,5aS,6R,8aS, 9R,10S,12R, 12aR)-3,6,9-trimethyldeca-hydro-12H-3,12-epoxy[1,2]dioxepino[4,3-i]isochromen-10-yl)oxy)benzamido)acetic acid] |
| 31.3 | 1740 | C[C@H]1[C@@H](OCc2c(F)cc(C(=O)N[C@H]3CC[C@@H](C(=O)O)C3)cc2F)O[C@@H]2O[C@@]3(C)CC[C@H]4[C@H](C)CC[C@@H]1[C@@]24OO3 [Compound 309, (1R,3S)-3-(3,5-difluoro-4-((((3R,5aS,6R,8aS, 9R,10S,12R, 12aR)-3,6,9-trimethyldeca-hydro-12H-3,12-epoxy[1,2]dioxepino[4,3-i]isochromen-10-yl)oxy)methyl)benzamido) cyclopentane-1-carboxylic acid] |
| 11400 | > 20000 | C[C@H]1[C@@H](OCC2(O)CCC(C(=O)O)CC2)O[C@@H]2O[C@@]3(C)CC[C@H]4[C@H](C)CC[C@@H]1[C@@]24OO3 (stereo partly drawn) [Compound 211, 4-hydroxy-4-((((3R,5aS,6R,8aS, 9R,10S,12R, 12aR)-3,6,9-trimethyldeca-hydro-12H-3,12-epoxy[1,2]dioxepino[4,3-i]isochromen-10-yl)oxy)methyl) cyclohexane-1-carboxylic acid] |
| 83.4 | 11300 | C[C@H]1[C@@H](OCc2ccc(C(=O)N[C@@H]3CCC[C@@H](C(=O)O)C3)cc2)O[C@@H]2O[C@@]3(C)CC[C@H]4[C@H](C)CC[C@@H]1[C@@]24OO3 [Compound 290, (1R,3R)-3-(4-((((3R,5aS,6R,8aS, 9R,10S,12R, 12aR)-3,6,9-trimethyldeca-hydro-12H-3,12-epoxy[1,2]dioxepino[4,3-i]isochromen-10-yl)oxy)methyl)benzamido) cyclohexane-1-carboxylic acid] |
| 17 | 19500 | C[C@H]1[C@@H](Oc2ccc(CC(=O)NC34CCC(C(=O)O)(C3)C4)cc2)O[C@@H]2O[C@@]3(C)CC[C@H]4[C@H](C)CC[C@@H]1[C@@]24OO3 [Compound 300, 4-(2-(4-(((3R,5aS,6R,8aS, 9R,10S,12R, 12aR)-3,6,9-trimethyldeca-hydro-12H-3,12-epoxy[1,2]dioxepino[4,3-i]isochromen-10-yl)oxy)phenyl)acetamido) bicyclo[2.1.1] hexane-1-carboxylic acid] |
| 47.4 | 9100 | CC(C)[C@H](NC(=O)c1ccc(O[C@H]2O[C@@H]3O[C@@]4(C)CC[C@H]5[C@H](C)CC[C@@H]([C@H]2C)[C@@]35OO4)cc1)C(=O)O [Compound 236, (4-(((3R,5aS,6R,8aS, 9R,10S,12R, 12aR)-3,6,9-trimethyldeca-hydro-12H-3,12-epoxy[1,2]dioxepino[4,3-i]isochromen-10-yl)oxy)benzoyl)-L-valine] |
| 70.8 | 1880 | C[C@H]1[C@@H](Oc2cc(F)cc(OCC(=O)O)c2)O[C@@H]2O[C@@]3(C)CC[C@H]4[C@H](C)CC[C@@H]1[C@@]24OO3 [Compound 220, 2-(3-fluoro-5-(((3R,5aS,6R,8aS, 9R,10S,12R, 12aR)-3,6,9-trimethyldeca-hydro-12H-3,12-epoxy[1,2]dioxepino[4,3-i]isochromen-10-yl)oxy)phenoxy) acetic acid] |
| 3210 | 11500 | C[C@H]1[C@@H](O[C@H]2C[C@@H](C(=O)N[C@H](C(=O)O)c3ccc(C(F)(F)F)cc3)C2)O[C@@H]2O[C@@]3(C)CC[C@H]4[C@H](C)CC[C@@H]1[C@@]24OO3 [Compound 257, (S)-2-(4-(trifluoromethyl)phenyl)-2-((1R,3R)-3-(((3R,5aS,6R,8aS, 9R,10S,12R, 12aR)-3,6,9-trimethyldeca-hydro-12H-3,12-epoxy[1,2]dioxepino[4,3-i]isochromen-10-yl)oxy)cyclo-butane-1-carboxamido) acetic acid] |
| 204 | > 20000 | C[C@H]1[C@@H](O[C@H]2CC[C@@H](C(=O)N[C@H](C(=O)O)C(C)(C)C)CC2)O[C@@H]2O[C@@]3(C)CC[C@H]4[C@H](C)CC[C@@H]1[C@@]24OO3 [Compound 229, (S)-3,3-dimethyl-2-((1R,4R)-4-(((3R,5aS,6R,8aS, 9R,10S,12R, 12aR)-3,6,9-trimethyldeca-hydro-12H-3,12-epoxy[1,2]dioxepino[4,3-i]isochromen-10-yl)oxy)cyclohexane-1-carboxamido) butanoic acid] |
| 27.6 | > 20000 | C[C@H]1[C@@H](Oc2ccc(CC(=O)N[C@@H]3CC[C@H](C(=O)O)C3)cc2)O[C@@H]2O[C@@]3(C)CC[C@H]4[C@H](C)CC[C@@H]1[C@@]24OO3 [Compound 289, (1S,3R)-3-(2-(4-(((3R,5aS,6R,8aS, 9R,10S,12R, 12aR)-3,6,9-trimethyldeca-hydro-12H-3,12-epoxy[1,2]dioxepino[4,3-i]isochromen-10-yl)oxy)phenyl)acetamido) cyclopentane-1-carboxylic acid] |
| 325 | > 20000 | C[C@H]1[C@@H](OCC(=O)Nc2ccc(C(=O)O)cc2)O[C@@H]2O[C@@]3(C)CC[C@H]4[C@H](C)CC[C@@H]1[C@@]24OO3 [Compound 213, 4-(2-(((3R,5aS,6R,8aS, 9R,10S,12R, 12aR)-3,6,9-trimethyldeca-hydro-12H-3,12-epoxy[1,2]dioxepino[4,3-i]isochromen-10-yl)oxy)actamido) benzoic acid] |
| 374 | 16800 | C[C@H]1[C@@H](OC[C@H]2CC[C@@H](C(=O)N3CC[C@@H](C(=O)O)C3)CC2)O[C@@H]2O[C@@]3(C)CC[C@H]4[C@H](C)CC[C@@H]1[C@@]24OO3 [Compound 263, (R)-1-((1R,4S)-4-((((3R,5aS,6R,8aS, 9R,10S,12R, 12aR)-3,6,9-trimethyldeca-hydro-12H-3,12-epoxy[1,2]dioxepino[4,3-i]isochromen-10-yl)oxy)methyl)cyclohexane-1-carbonyl) pyrrolidine-3-carboxylic acid] |
| 2870 | > 20000 | C[C@H]1[C@@H](Oc2ccccc2OCC(=O)O)O[C@@H]2O[C@@]3(C)CC[C@H]4[C@H](C)CC[C@@H]1[C@@]24OO3 [Compound 230, 2-(2-(((3R,5aS,6R,8aS, 9R,10S,12R, 12aR)-3,6,9-trimethyldeca-hydro-12H-3,12-epoxy[1,2]dioxepino[4,3-i]isochromen-10-yl)oxy)phenoxy) acetic acid] |
| 105 | 9270 | C[C@H]1[C@@H](Oc2ccc(C(=O)N(C)[C@H]3CC[C@@H](C(=O)O)C3)cc2)O[C@@H]2O[C@@]3(C)CC[C@H]4[C@H](C)CC[C@@H]1[C@@]24OO3 [Compound 272, (1R,3S)-3-(N-methyl-4-(((3R,5aS,6R,8aS, 9R,10S,12R, 12aR)-3,6,9-trimethyldeca-hydro-12H-3,12-epoxy[1,2]dioxepino[4,3-i]isochromen-10-yl)oxy)benzamido) cyclopentane-1-carboxylic acid] |
| 98.2 | 1520 | C[C@H]1[C@@H](Oc2ccc(C(=O)N[C@H](C(=O)O)C3CCC3)cc2)O[C@@H]2O[C@@]3(C)CC[C@H]4[C@H](C)CC[C@@H]1[C@@]24OO3 [Compound 251, (S)-2-cyclobutyl-2-(4-(((3R,5aS,6R,8aS, 9R,10S,12R, 12aR)-3,6,9-trimethyldeca-hydro-12H-3,12-epoxy[1,2]dioxepino[4,3-i]isochromen-10-yl)oxy)benzamido) acetic acid] |

From US20260242391A1 (priority 2023, published 2026)
